Data from publication PMC10714400, “Antimicrobial Peptide–Peptoid Hybrids with and without Membrane Disruption” (ACS Infectious Diseases, 2023).
Converted amounts (≈) assume the structure as drawn. Read-outs that look alike come from different tables or passages of the source. Where a SMILES comes first, the peptide text is derived from it. [ ]: non-standard residue; d: D form. Nleu = CC(C)CNCC(=O)O; Nlys = NCCCCNCC(=O)O

What was measured:
[1] = system: K. pneumoniae NCTC418; conditions: for MIC K. pneumoniae NCTC418, full MH at pH 8.5 / MIC K. pneumoniae NCTC418 Full MH 8.5 / MIC K. pneumoniae NCTC418 […] 8.5: pH 8.5; for MIC K. pneumoniae NCTC418 […] 7.4 / MIC K. pneumoniae NCTC418 […] 8.5: […] MH; for MIC K. pneumoniae NCTC418, full MH at pH 7.4 / MIC K. pneumoniae NCTC418 […] 7.4 / MIC K. pneumoniae NCTC418 Full MH 7.4: pH 7.4
How it was run: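 MTT added (20–30 min, room temperature); MIC read by eye as lowest concentration inhibiting visible growth (yellow). Polymyxin B positive control from 16 μg/mL.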

[2] = system: PA14 4.13 (phoQ)
How it was run: (§1)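 MIC read visually after MTT staining: lowest compound concentration preventing visible growth (yellow wells). Inoculum ~5 × 10^5 CFU per well in MH broth; static incubation at 37 °C for ca. 18 h.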

[3] = system: E. cloacae; conditions: for MIC E. cloacae: Table S3, […] MH at pH 8.5
How it was run: as §1

[4] = system: E. coli W3110; conditions: for MIC E. coli W3110, […] MH at pH 7.4 / MIC E. coli W3110, […] MH at pH 8.5 / MIC E. coli W3110, full MH at pH 7.4: CSV; for MIC E. coli W3110 […] 7.4 / MIC E. coli W3110 […] 8.5 / MIC E. coli W3110 Full MH 7.4 / MIC E. coli W3110 Full MH 8.5: Table S2; for MIC E. coli W3110 […] 7.4 / MIC E. coli W3110 […] 8.5: […] MH; for MIC E. coli W3110 […] 7.4 / MIC E. coli W3110 Full MH 7.4: pH 7.4; for MIC E. coli W3110 […] 8.5 / MIC E. coli W3110 Full MH 8.5: pH 8.5
How it was run: as §1

[5] = system: E. coli W3110; assay: NPN outer membrane permeability assay; type: cell-based, Escherichia coli; conditions: not told
Description: Figure 4 Interactions of peptide–peptoid hybrids with bacterial outer and inner membranes of E. coli. (a, b) NPN outer membrane permeability assay. E. coli W3110 bacteria were treated with increasing compound concentrations in the presence of 10 μM NPN. The fluorescence intensity (λex = 340 nm, λem = 415 nm) was measured within 5 min. Data represent mean ± SD, n = 3. (c, d) DiSC3(5) inner membrane depolarization assay. E. coli W3110 bacteria were treated with increasing compound concentrations in the presence of 2 μM DiSC3(5). The fluorescence intensity (λex = 610 nm, λem = 660 nm) was measured within 5 min after treatment, and the data represent mean ± SD, n = 3.
A single colony of P. aeruginosa PAO1 and E. coli W3110 was grown overnight while being shaken (150 rpm) in LB-broth (5 mL) at 37 °C. 100 μL of the overnight culture was regrown in 10 mL of LB broth with shaking (200 rpm) to the exponential phase (OD600 = 1, corresponding to 10^9 CFU/mL). Bacteria were washed three times with HEPES buffer (5 mM HEPES, 5 mM glucose, pH 7.4), but not diluted yet to their final concentration. 200 μL of peptide samples was added to the first well of 96-well plates (black wells, flat bottom, BRAND GmbH Wertheim, Germany), 100 μL of HEPES/glucose buffer with 10 μM N-phenyl-1-naphthylamine (NPN, purchased from Acros Organics) was added in all the wells, and the compounds were diluted serially by 1/2 (add a control with a final volume of 200 μL with 10 μM NPN in buffer only). Ca. 10 min before the measurement and the final dilution of the bacteria, the plates and the 10 μM NPN in HEPES/glucose buffer (for bacteria dilution) were incubated at 37 °C (prior to the dilution of the bacteria with buffer containing NPN 10 μM). Later, the bacteria were diluted to OD600 = 0.5 with the NPN in HEPES/glucose buffer. 100 μL of the bacterial suspension was added to each well. In this case, the final OD of bacteria was 0.25, the final concentration of the desired compound 64 μg/mL, and NPN 10 μM. The control wells are buffer containing NPN (10 μM, 200 μL) and bacterial suspension containing NPN in HEPES buffer. The plate was measured with a Tecan instrument Infinite M1000 within 5 min. The plate was enabled to shake for 5 s before measurement. The excitation wavelength used was 340 ± 5 nm, and emission wavelength was 415 ± 5 nm. The assay was repeated at least three times.

[6] = Circular dichroism, α-helical content; type: physicochemical; conditions: 0.1 mg/mL; for CD %α with 5 mM DPC: 10 mM phosphate buffer pH 7.4, 5 mM DPC; for CD %α with 20% TFE: 10 mM phosphate buffer pH 7.4, 20% TFE

SMILES	MIC K. pneumoniae NCTC418, full MH at pH 7.4 ([1]; NCTC418, 4 h)	MIC K. pneumoniae NCTC418, full MH at pH 8.5 ([1]; NCTC418, 4 h)	MIC K. pneumoniae NCTC418 […] 7.4 ([1]; Table S2)	MIC K. pneumoniae NCTC418 […] 8.5 ([1]; Table S2)	MIC K. pneumoniae NCTC418 Full MH 7.4 ([1]; Table S2, full MH)	MIC P. aeruginosa PA14 4.13, […] MH at pH 8.5 ([2]; CSV, […] MH at pH 8.5)	MIC E. cloacae [3]	MIC E. coli W3110, […] MH at pH 7.4 [4]	MIC E. coli W3110, […] MH at pH 8.5 [4]	MIC E. coli W3110, full MH at pH 7.4 [4]	MIC E. coli W3110 […] 7.4 [4]	MIC E. coli W3110 […] 8.5 [4]	MIC E. coli W3110 Full MH 7.4 [4]	MIC E. coli W3110 Full MH 8.5 [4]	Outer membrane permeabilization (NPN) [5]	CD %α with 5 mM DPC ([6]; DichroWeb, Contin-LL)	CD %α with 20% TFE ([6]; DichroWeb, Contin-LL)	CD %α with 5 mM DPC ([6]; Table S2)	CD %α with 20% TFE ([6]; Table S2)	also measured
CC(C)C[C@H](NC(=O)[C@H](CC(C)C)NC(=O)[C@H](CC(C)C)NC(=O)[C@H](CCCCN)NC(=O)[C@H](CC(C)C)NC(=O)[C@H](CC(C)C)NC(=O)CN(CCCCN)C(=O)[C@H](CC(C)C)NC(=O)[C@H](CC(C)C)NC(=O)CN(CCCCN)C(=O)CNCCCCN)C(N)=O [EB6, kkLLkLLKLLL] (H-[Nlys][Nlys]LL[Nlys]LLKLLL-NH2)	8 ug/mL	12 ug/mL	4 µg/mL (≈ 3.03 µM)	2 µg/mL (≈ 1.51 µM)	8 µg/mL (≈ 6.05 µM)	2 ug/mL	4 µg/mL (≈ 3.03 µM)	2 ug/mL	2 ug/mL	2 ug/mL	2 µg/mL (≈ 1.51 µM)	2 µg/mL (≈ 1.51 µM)	2 µg/mL (≈ 1.51 µM)	8 µg/mL (≈ 6.05 µM)	permeabilized the outer membrane	41%	35%	41%	35%	MIC K. pneumoniae NCTC418 Full MH 8.5 ([1]; NCTC418, 4 h): 8 to 16 µg/mL; MIC P. aeruginosa PA14 4.13, full MH at pH 7.4 ([2]; CSV, full MH at pH 7.4): 4 ug/mL; MIC PA14 4.13 (phoQ) ([2]; MH pH 7.4, 16–20 h at 37 °C): 4 µg/mL (≈ 3.03 µM); MIC P. aeruginosa PA14 4.13 ([2]; Table S3, […] MH at pH 8.5): 2 µg/mL (≈ 1.51 µM); MIC E. cloacae, full MH at pH 7.4 ([3]; 4 h, pH 7.4): 4 ug/mL; MIC E. coli W3110 […] ([4]; diluted MH ([…] MH, pH 8.5) per Table 1 footnote b, 16–20 h at 37 °C): 2 µg/mL (≈ 1.51 µM)
CC(C)C[C@H](NC(=O)CN(CC(C)C)C(=O)[C@H](CC(C)C)NC(=O)CN(CCCCN)C(=O)[C@H](CC(C)C)NC(=O)CN(CC(C)C)C(=O)[C@H](CCCCN)NC(=O)CN(CC(C)C)C(=O)[C@H](CC(C)C)NC(=O)CN(CCCCN)C(=O)[C@@H](N)CCCCN)C(N)=O [EB9, KkLlKlLkLlL] (H-K[Nlys]L[Nleu]K[Nleu]L[Nlys]L[Nleu]L-NH2)	>32 ug/mL	>32 ug/mL	> 32 µg/mL	16 µg/mL (≈ 12.1 µM)	> 32 µg/mL	2 ug/mL	16 µg/mL (≈ 12.1 µM)	2 ug/mL	2 ug/mL	16 ug/mL	2 µg/mL (≈ 1.51 µM)	2 µg/mL (≈ 1.51 µM)	16 µg/mL (≈ 12.1 µM)	> 32 µg/mL	significant outer membrane permeabilization	11%	13%	11%	13%	MIC K. pneumoniae NCTC418 Full MH 8.5 ([1]; Table S2, full MH): > 32 µg/mL; MIC PA14 4.13 (phoQ) ([2]; diluted MH ([…] MH) at pH 8.5 (Table 2 footnote b)): 2 µg/mL (≈ 1.51 µM); Antibacterial activity as a function of NaCl concentration ([4]; E. coli W3110, […] MH at pH 8.5, up to 300 mM NaCl): strongly reduced
